Where a name gives a salt, the structure may show the parent alone.
Target: T1, human 5-HT6 receptor (Homo sapiens, UniProt P50406)
T1 construct: host or cells: CHO-K1 cells, stably transfected; membranes prepared in house
Assay: Human 5-HT6 Receptor Binding Assay ([3H]LSD displacement, scintillation beads)
Details: membranes of CHO-K1 cells with recombinant human 5-HT6, 4 nM [3H]LSD; Table 1, class symbols; read-out: h5-HT6 (Ki)

T1 sequence (P50406 whole entry): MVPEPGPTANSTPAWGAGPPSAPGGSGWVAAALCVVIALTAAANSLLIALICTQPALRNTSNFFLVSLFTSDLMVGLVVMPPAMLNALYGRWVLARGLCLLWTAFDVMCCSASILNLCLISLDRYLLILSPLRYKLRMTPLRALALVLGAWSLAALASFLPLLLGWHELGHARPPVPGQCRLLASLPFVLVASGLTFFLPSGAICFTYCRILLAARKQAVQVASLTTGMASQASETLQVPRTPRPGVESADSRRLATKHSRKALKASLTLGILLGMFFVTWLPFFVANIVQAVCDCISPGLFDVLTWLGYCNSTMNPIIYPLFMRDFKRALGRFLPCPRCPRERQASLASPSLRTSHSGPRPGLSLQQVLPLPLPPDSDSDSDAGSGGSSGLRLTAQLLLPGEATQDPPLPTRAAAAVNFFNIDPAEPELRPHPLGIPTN

| Compound | Ki |
| --- | --- |
| [O-][S+](c1cccc(F)c1)c1ccc2c(c1)OC1CNCCC21 (stereo not drawn) [Example 625, 7-[(3-Fluorophenyl)sulfinyl]-1,2,3,4,4a,9a-hexahydro[1]benzofuro[2,3-c]pyridine trifluoroacetic acid salt] | < 500 nM |
| CC(=O)NCC1(C)NCCc2c1oc1cc(S(=O)(=O)c3cccc(F)c3)ccc21 (stereo not drawn) [Example 631, N-({7-[(3-fluorophenyl)sulfonyl]-1-methyl-1,2,3,4-tetrahydro[1]benzofuro[2,3-c]pyridin-1-yl}methyl)acetamide] | < 500 nM |
| CC(=O)NCC1(C)NCCc2c1oc1cc(S(=O)(=O)c3cccc(F)c3)ccc21 (stereo not drawn) [Example 632, N-({7-[(3-fluorophenyl)sulfonyl]-1-methyl-1,2,3,4-tetrahydro[1]benzofuro[2,3-c]pyridin-1-yl}methyl)acetamide] | < 500 nM |
| COCC1(C)NCCc2c1oc1cc(S(=O)(=O)c3cccc(F)c3)ccc21 (stereo not drawn) [Example 633] | < 500 nM |
| COCC1(C)NCCc2c1oc1cc(S(=O)(=O)c3cccc(F)c3)ccc21 (stereo not drawn) [Example 634] | < 500 nM |
| O=S(=O)(Oc1ccc2c(c1)OC1CNCCC21)c1ccc(Cl)cc1 (stereo not drawn) [Example 635, 1,2,3,4,4a,9a-Hexahydro[1]benzofuro[2,3-c]pyridin-7-yl 4-chlorobenzenesulfonate] | < 500 nM |
| O=S(=O)(Oc1ccc2c(c1)OC1CNCCC21)c1ccccc1 (stereo not drawn) [Example 636] | < 500 nM |
| O=S(=O)(Cc1ccccc1)Oc1ccc2c(c1)OC1CNCCC21 (stereo not drawn) [Example 637] | > 1000 nM |
| O=S(=O)(Oc1ccc2c(c1)OC1CNCCC21)c1c(Cl)nc2sccn12 (stereo not drawn) [Example 638] | < 500 nM |
| Cn1cnc(S(=O)(=O)Oc2ccc3c(c2)OC2CNCCC32)c1 (stereo not drawn) [Example 639] | > 1000 nM |
| Cc1oncc1S(=O)(=O)Oc1ccc2c(c1)OC1CNCCC21 (stereo not drawn) [Example 640] | > 1000 nM |
| Cc1cccc(S(=O)(=O)Oc2ccc3c(c2)OC2CNCCC32)c1 (stereo not drawn) [Example 641] | < 500 nM |
| Cc1ccc(S(=O)(=O)Oc2ccc3c(c2)OC2CNCCC32)cc1 (stereo not drawn) [Example 642] | < 500 nM |
| O=S(=O)(Oc1ccc2c(c1)OC1CNCCC21)c1cccc(F)c1 (stereo not drawn) [Example 643] | < 500 nM |
| O=S(=O)(Oc1ccc2c(c1)OC1CNCCC21)c1ccc(F)cc1 (stereo not drawn) [Example 644] | < 500 nM |
| Cc1nc(S(=O)(=O)Oc2ccc3c(c2)OC2CNCCC32)cn1C (stereo not drawn) [Example 645] | > 1000 nM |
| Cc1noc(C)c1S(=O)(=O)Oc1ccc2c(c1)OC1CNCCC21 (stereo not drawn) [Example 646] | 500 to 1000 nM |
| Cc1ccc(C)c(S(=O)(=O)Oc2ccc3c(c2)OC2CNCCC32)c1 (stereo not drawn) [Example 647] | < 500 nM |
| Cc1cc(C)cc(S(=O)(=O)Oc2ccc3c(c2)OC2CNCCC32)c1 (stereo not drawn) [Example 648] | < 500 nM |
| Cc1ccc(S(=O)(=O)Oc2ccc3c(c2)OC2CNCCC32)cc1C (stereo not drawn) [Example 649] | < 500 nM |
| COc1ccc(S(=O)(=O)Oc2ccc3c(c2)OC2CNCCC32)cc1 (stereo not drawn) [Example 650] | < 500 nM |
| COc1cccc(S(=O)(=O)Oc2ccc3c(c2)OC2CNCCC32)c1 (stereo not drawn) [Example 651] | < 500 nM |
| Cc1ccc(S(=O)(=O)Oc2ccc3c(c2)OC2CNCCC32)cc1F (stereo not drawn) [Example 652] | 500 to 1000 nM |
| O=S(=O)(Oc1ccc2c(c1)OC1CNCCC21)c1cccc(Cl)c1 (stereo not drawn) [Example 653] | < 500 nM |
| O=S(=O)(Oc1ccc2c(c1)OC1CNCCC21)c1ccccc1Cl (stereo not drawn) [Example 654] | < 500 nM |
| O=S(=O)(Oc1ccc2c(c1)OC1CNCCC21)c1ccccn1 (stereo not drawn) [Example 689] | > 1000 nM |

Second part, the compound after the results:

| Ki | Compound |
| --- | --- |
| < 500 nM | O=S(=O)(Oc1ccc2c(c1)OC1CNCCC21)c1cc2ccccc2o1 (stereo not drawn) [Example 655] |
| < 500 nM | Cc1cc(C)c(S(=O)(=O)Oc2ccc3c(c2)OC2CNCCC32)c(C)c1 (stereo not drawn) [Example 656] |
| < 500 nM | CC(C)c1ccc(S(=O)(=O)Oc2ccc3c(c2)OC2CNCCC32)cc1 (stereo not drawn) [Example 657] |
| < 500 nM | Cc1c(Cl)cccc1S(=O)(=O)Oc1ccc2c(c1)OC1CNCCC21 (stereo not drawn) [Example 658] |
| > 1000 nM | Cc1ccc(S(=O)(=O)Oc2ccc3c(c2)OC2CNCCC32)cc1Cl (stereo not drawn) [Example 659] |
| < 500 nM | O=S(=O)(Oc1ccc2c(c1)OC1CNCCC21)c1ccc2ccccc2c1 (stereo not drawn) [Example 661] |
| < 500 nM | O=S(=O)(Oc1ccc2c(c1)OC1CNCCC21)c1cccc2cccnc12 (stereo not drawn) [Example 662] |
| < 500 nM | O=S(=O)(Oc1ccc2c(c1)OC1CNCCC21)c1ccc(F)c(Cl)c1 (stereo not drawn) [Example 663] |
| < 500 nM | O=S(=O)(Oc1ccc2c(c1)OC1CNCCC21)c1cc2ccccc2s1 (stereo not drawn) [Example 664] |
| < 500 nM | O=S(=O)(Oc1ccc2c(c1)OC1CNCCC21)c1csc2ccccc12 (stereo not drawn) [Example 665] |
| < 500 nM | CC(C)(C)c1ccc(S(=O)(=O)Oc2ccc3c(c2)OC2CNCCC32)cc1 (stereo not drawn) [Example 666] |
| > 1000 nM | CC(=O)Nc1ccc(S(=O)(=O)Oc2ccc3c(c2)OC2CNCCC32)cc1 (stereo not drawn) [Example 667] |
| < 500 nM | O=S(=O)(Oc1ccc2c(c1)OC1CNCCC21)c1ccc2c(c1)OCCO2 (stereo not drawn) [Example 668] |
| < 500 nM | O=S(=O)(Oc1ccc2c(c1)OC1CNCCC21)c1cccc2nsnc12 (stereo not drawn) [Example 669] |
| < 500 nM | COc1ccc(OC)c(S(=O)(=O)Oc2ccc3c(c2)OC2CNCCC32)c1 (stereo not drawn) [Example 670] |
| < 500 nM | O=S(=O)(Oc1ccc2c(c1)OC1CNCCC21)c1ccc(-n2cccn2)cc1 (stereo not drawn) [Example 671] |
| < 500 nM | O=S(=O)(Oc1ccc2c(c1)OC1CNCCC21)c1ccc(-c2cnco2)cc1 (stereo not drawn) [Example 672] |

| Ki | Compound |
| --- | --- |
| < 500 nM | O=S(=O)(Oc1ccc2c(c1)OC1CNCCC21)c1ccc(C(F)(F)F)cc1 (stereo not drawn) [Example 673] |
| < 500 nM | O=S(=O)(Oc1ccc2c(c1)OC1CNCCC21)c1ccccc1C(F)(F)F (stereo not drawn) [Example 674] |
| < 500 nM | O=S(=O)(Oc1ccc2c(c1)OC1CNCCC21)c1cccc(C(F)(F)F)c1 (stereo not drawn) [Example 675] |
| < 500 nM | O=S(=O)(Oc1ccc2c(c1)OC1CNCCC21)c1ccc(Cl)c(Cl)c1 (stereo not drawn) [Example 676] |
| < 500 nM | O=S(=O)(Oc1ccc2c(c1)OC1CNCCC21)c1cc(Cl)cc(Cl)c1 (stereo not drawn) [Example 677] |
| < 500 nM | O=S(=O)(Oc1ccc2c(c1)OC1CNCCC21)c1cccc(Cl)c1Cl (stereo not drawn) [Example 678] |
| < 500 nM | O=S(=O)(Oc1ccc2c(c1)OC1CNCCC21)c1c(Cl)cccc1Cl (stereo not drawn) [Example 679] |
| < 500 nM | O=S(=O)(Oc1ccc2c(c1)OC1CNCCC21)c1ccc(-c2ccon2)s1 (stereo not drawn) [Example 680] |
| < 500 nM | O=S(=O)(Oc1ccc2c(c1)OC1CNCCC21)c1ccc(-c2ccccc2)cc1 (stereo not drawn) [Example 681] |
| < 500 nM | O=S(=O)(Oc1ccc2c(c1)OC1CNCCC21)c1ccc(OC(F)(F)F)cc1 (stereo not drawn) [Example 682] |
| 500 to 1000 nM | O=S(=O)(Oc1ccc2c(c1)OC1CNCCC21)c1ccc(N2CCOCC2)nc1 (stereo not drawn) [Example 683] |
| 500 to 1000 nM | O=S(=O)(Oc1ccc2c(c1)OC1CNCCC21)c1cccc2cnccc12 (stereo not drawn) [Example 684] |
| > 1000 nM | O=S(=O)(Oc1ccc2c(c1)OC1CNCCC21)c1ccc(Oc2ccccc2)nc1 (stereo not drawn) [Example 685] |
| < 500 nM | O=S(=O)(Oc1ccc2c(c1)OC1CNCCC21)c1csc(C(F)(F)F)c1-c1ccccc1 (stereo not drawn) [Example 686] |
| < 500 nM | Cc1c(S(=O)(=O)Oc2ccc3c(c2)OC2CNCCC32)sc2ccc(Cl)cc12 (stereo not drawn) [Example 687] |
| 500 to 1000 nM | O=[N+]([O-])c1ccc(S(=O)(=O)Oc2ccc3c(c2)OC2CNCCC32)cc1 (stereo not drawn) [Example 688] |
| > 1000 nM | O=S(=O)(CC1CCCCC1)Oc1ccc2c(c1)OC1CNCCC21 (stereo not drawn) [Example 690] |
